Reference: patent publication US5538731A, “Cosmetic” (Mikimoto Pharmaceutical Co., Ltd., priority 1992, dated 1996)

Experiment: Antioxydation test (linoleic acid, thiocyanate method)
Conditions: 5 mg specimen
Description: In a 50 ml test tube with a screw cap, the following test solution was prepared. […]
This test solution was allowed to stand in a thermostatic bath at 50° C., while light was shut out. […]
12.125 ml of 75% ethanol and 0.125 ml of 30% ammonium thiocyanate were added to 0.125 ml of the test solution, and the solution was stirred and then allowed to stand for 3 minutes. Afterward, 0.125 ml of a 3.5% aqueous HCl solution including 0.02 N ferrous chloride was added thereto, and the solution was stirred and then allowed to stand for 3 minutes. Next, absorbance was measured at a wavelength of 500 nm. A cell length was 10 mm, and a control was prepared by replacing the test solution with water.

Substance: Vitamin E
- Absorbance at 500 nm After 3 days (linoleic acid test solution at 50° C., light shut out, water 0.050): 0.026
- Absorbance at 500 nm After 5 days (linoleic acid test solution at 50° C., light shut out, water 0.103): 0.047
- Absorbance at 500 nm After 7 days (linoleic acid test solution at 50° C., light shut out, water 0.262): 0.070
- Absorbance at 500 nm After 0 day (linoleic acid test solution, before placing at 50° C., water 0.014): 0.015
